What was measured:
[1] = target: T1, full-length FAK (Homo sapiens, UniProt Q05397); assay: FAK biochemical kinase assay (LANCE Ultra TR-FRET); details: for dependence of kinase inhibitory activity against full-length FAK on the concentration of ATP: methyl violet 2B at 2.7 μM, FIG. 2
T1 construct: purchased Signalchem
Experimental: Kinase reactions were performed at room temperature in lysis buffer (50 mM HEPES pH 7.5, 1 mM EGTA, 10 mM MgCl2, 2 mM DTT and 0.01% Tween-20) with 0.3 nM FAK (Signalchem), 100 nM ULight-poly GT (PerkinElmer), 10 μM ATP, and various concentrations (10 fold serial dilution, 6 points) of test compounds at a final volume of 10 μL. After 1 h, the kinase reaction was stopped by adding 10 mM EDTA and progressed by incubating the reaction mixture at room temperature for 5 min. To the mixture was added Detection Mix (Eu-anti-phospho-Tyr (PT66)) antibody to a final concentration of 2 nM and incubated for 1 h at room temperature. The plates were covered before being read using an EnVision® Multilabel reader in TR-FRET mode (excitation at 320 nm and emission at 665 nm, PerkinElmer).

[2] = system: A375P; assay: Anti-proliferative activity assay (MTT / CellTiter-Glo); type: cell-based; details: Homo sapiens, skin, read-out: IC50 (nM), proliferation
Experimental: (§1) Melanoma cells (A375P, A375SM) and breast cancer cells (MDA-MB-231, MCF7) were maintained in DMEM medium (Welgene, Daegu, Korea). Colorectal cancer cells (HCT116, HT29), lung cancer cells (A549) and prostate cancer cells (DU145) were grown in RPMI1640 medium (Welgene). NIH3T3 and Balb/c cells were cultured in DMEM/F12 medium (Welgene).
(§2) Each medium was supplemented with 10% FBS (Welgene) and 1% penicillin/streptomycin (Welgene) in a humidified atmosphere with 5% CO2 at 37° C. A375P cells were purchased from the American Type Culture Collection (ATCC, Rockville, Md., US), and A375SM, MDA-MB-231, MCF7, HCT116, HT29, A549, DU145, NIH3T3 and Balb/c were purchased from the Korean Cell Line Bank (Seoul, Korea).
(§3) Cells were taken from culture substrate with 0.05% trypsin-0.02% EDTA and plated at a density of 5×10^3 cells/well in 96 well plates and then incubated at 37° C. for 24 h in a humidified atmosphere with 5% CO2 prior to treatment of various concentration (tenfold serial dilution, 6 steps) of test compounds. The cell viability was assessed by the conventional 3-(4,5-dimethylthiazol-2-yl)-2,5-diphenyltetrazolium bromide (MTT) reduction assay and luminescent assay. The MTT and luminescent assays were carried out with CellTiter 96® and CellTiter-Glo® Luminescent Cell Viability Assay (Promega, Wis., USA) according to the manufacturer's instructions. The absorbance at 590 nm was recorded using EnVision2103 (PerkinElmer; Boston, Mass., US). The IC50 value was calculated using the GraphPad Prism 4.0 software.

[3] = system: A375SM; assay: as above; type: cell-based; details: Homo sapiens, A375-SM, skin, read-out: IC50 (nM), proliferation
Experimental: as §1, §2, §3

[4] = system: A549; assay: as above; type: cell-based; details: Homo sapiens; A549, lung; read-out: IC50 (nM), proliferation
Experimental: as §1, §2, §3

[5] = system: Balb/c; assay: as above; type: cell-based; details: Mus musculus, fibroblast, read-out: IC50 (nM), proliferation
Experimental: as §1, §2, §3

[6] = system: DU145; assay: as above; type: cell-based; details: Homo sapiens, DU-145; DU145, prostate; read-out: IC50 (nM), proliferation
Experimental: as §1, §2, §3

[7] = system: HCT116; assay: as above; type: cell-based; details: Homo sapiens, HCT-116; HCT116, colon; read-out: IC50 (nM), proliferation
Experimental: as §1, §2, §3

[8] = system: HT29; assay: as above; type: cell-based; details: Homo sapiens, HT-29; HT29, colon; read-out: IC50 (nM), proliferation
Experimental: as §1, §2, §3

[9] = system: MCF7; assay: as above; type: cell-based; details: Homo sapiens; MCF7, breast; read-out: IC50 (nM), proliferation
Experimental: as §1, §2, §3

[10] = system: MDA-MB-231; assay: as above; type: cell-based; details: Homo sapiens; MDA-MB-231, breast; read-out: IC50 (nM), proliferation
Experimental: as §1, §2, §3

[11] = system: NIH3T3; assay: as above; type: cell-based; details: Mus musculus; NIH3T3, fibroblast; read-out: IC50 (nM), proliferation
Experimental: as §1, §2, §3

[12] = system: FAK; assay: Western analysis, FAK phosphorylation in A375P cells; type: cell-based, human; details: 0.1-10 nM, 48 h
Experimental: (§4) After incubating with the test compound for 48 h, both adherent and floating cancer cells were collected. The cells were lysed on ice in lysis buffer (50 mM Tris, pH 7.4, 150 mM NaCl, 1 mM EDTA, 1% NP-40, 0.25% sodium deoxycholate) supplemented with phosphatase inhibitors (Sigma #P2850, #5726; Phosphatase Inhibitor Cocktail I & II) and protease inhibitors (Complete, Mini, EDTA-free; Roche Applied Science) for 20 min. The protein concentration was determined using the Bio-Rad Protein assay reagent (Bio-Rad #500-0006). The lysate was centrifuged at 13000 rpm at 4° C. for 20 min. 50 μg of total proteins were mixed with […] (50 mM Tris-HCl (pH 6.8), 2% SDS, 10% 2-mercaptoethanol, 10% glycerol, and 0.002% bromophenol blue), boiled for 5 min, and subjected to a 10% SDS polyacrylamide gel electrophoresis. The proteins were electrophoresed onto nitrocellulose membranes and detected with antibodies against FER, FAK, DOCK180, Pyk2, Paxillin, AKT, GSK3, PTEN, JNK, ERK, Bcl-2, C-raf and Actin and against phosphorylated FER Tyr402, FAK Tyr925, Tyr861, Tyr577, Tyr576, Tyr397, Pyk2 Tyr402, Paxillin Tyr118, AKT S473, T308, GSK3β S9, JNK, ERK, Bad, C-raf and ERM T567, T564, T558 followed by the addition of horseradish peroxidase (HRP)-conjugated secondary antibodies and 3,3-diaminobenzidine tetrahydrochloride (DAB) as the HRP substrate.

[13] = system: FER Tyr402; assay: Western analysis, FER phosphorylation in A375P cells; type: cell-based, human; details: 10 nM, 48 h
Experimental: as §4

[14] = system: AKT; assay: Western analysis, AKT phosphorylation in A375P cells; type: cell-based, human; details: 1 nM, 48 h
Experimental: as §4

[15] = system: GSK3β S9; assay: Western analysis, GSK3β phosphorylation in A375P cells; type: cell-based, human; details: dose-dependent, 48 h
Experimental: as §4

[16] = system: PTEN; assay: Western analysis, PTEN level in A375P cells; type: cell-based, human; details: 48 h
Experimental: as §4

[17] = system: p-ERK; assay: Western analysis, ERK phosphorylation in A375P cells; type: cell-based, human; details: 10 nM, 48 h
Experimental: as §4

[18] = system: p-JNK; assay: Western analysis, JNK phosphorylation in A375P cells; type: cell-based, human; details: 10 nM, 48 h
Experimental: as §4

[19] = system: Bcl-2; assay: Western analysis, Bcl-2 expression; type: cell-based, human; details: concentrations >1 nM, concentration-dependent
Experimental: as §4

[20] = system: p-Bad; assay: Western analysis, Bad phosphorylation; type: cell-based, human; details: compared to Bcl-2
Experimental: as §4

[21] = system: C-raf; assay: Western analysis, C-raf phosphorylation; type: cell-based, human
Experimental: as §4

[22] = system: A375P cells; assay: QCM ECMatrix Cell Invasion Assay; type: cell-based, human; details: 1 nM, 48 h
Experimental: Invasion of A375P cells was assessed by using the QCM ECMatrix Cell Invasion Assay (Chemicon, Millipore, Calif.) according to the manufacturer's protocol. The cells were plated on the membrane of the upper chamber of the transwell at a concentration of 2.5×10^5 cells/well in 500 μL of serum-free medium. The medium in the lower chamber contained the test compound and 10% fetal bovine serum. The cells that passed through the polycarbonate membrane were stained with cell stain solution supplied in the Transwell Invasion assay (Chemicon, Millipore, Calif.) and photographed after 48 h of incubation. The invasion was quantitated by dissolving the stained cells in 10% acetic acid and transferring a consistent amount of the dye/solute mixture to a 96-well plate for colorimetric reading of OD at 560 nm.

[23] = system: A375P cells; assay: Migration (wound healing) assay, Ibidi Culture-Insert; type: cell-based, human; details: 1 nM, 48 h
Experimental: Migration of the A375P cells was assessed by using the Culture-Inserts (Ibidi) according to the manufacturer's protocol. The cells were plated at a density of 1×10^5 cells/well in each well of Culture-Inserts. After 24 h incubation, the Culture-Inserts were removed, and wounds were created by using a 500-μm thick wall. The dish containing these cells was treated with medium containing the compound and incubated at 37° C. for 48 h. Phase-contrast images of the closed gap wound were captured using a microscope.

T1 sequence (Q05397 whole entry): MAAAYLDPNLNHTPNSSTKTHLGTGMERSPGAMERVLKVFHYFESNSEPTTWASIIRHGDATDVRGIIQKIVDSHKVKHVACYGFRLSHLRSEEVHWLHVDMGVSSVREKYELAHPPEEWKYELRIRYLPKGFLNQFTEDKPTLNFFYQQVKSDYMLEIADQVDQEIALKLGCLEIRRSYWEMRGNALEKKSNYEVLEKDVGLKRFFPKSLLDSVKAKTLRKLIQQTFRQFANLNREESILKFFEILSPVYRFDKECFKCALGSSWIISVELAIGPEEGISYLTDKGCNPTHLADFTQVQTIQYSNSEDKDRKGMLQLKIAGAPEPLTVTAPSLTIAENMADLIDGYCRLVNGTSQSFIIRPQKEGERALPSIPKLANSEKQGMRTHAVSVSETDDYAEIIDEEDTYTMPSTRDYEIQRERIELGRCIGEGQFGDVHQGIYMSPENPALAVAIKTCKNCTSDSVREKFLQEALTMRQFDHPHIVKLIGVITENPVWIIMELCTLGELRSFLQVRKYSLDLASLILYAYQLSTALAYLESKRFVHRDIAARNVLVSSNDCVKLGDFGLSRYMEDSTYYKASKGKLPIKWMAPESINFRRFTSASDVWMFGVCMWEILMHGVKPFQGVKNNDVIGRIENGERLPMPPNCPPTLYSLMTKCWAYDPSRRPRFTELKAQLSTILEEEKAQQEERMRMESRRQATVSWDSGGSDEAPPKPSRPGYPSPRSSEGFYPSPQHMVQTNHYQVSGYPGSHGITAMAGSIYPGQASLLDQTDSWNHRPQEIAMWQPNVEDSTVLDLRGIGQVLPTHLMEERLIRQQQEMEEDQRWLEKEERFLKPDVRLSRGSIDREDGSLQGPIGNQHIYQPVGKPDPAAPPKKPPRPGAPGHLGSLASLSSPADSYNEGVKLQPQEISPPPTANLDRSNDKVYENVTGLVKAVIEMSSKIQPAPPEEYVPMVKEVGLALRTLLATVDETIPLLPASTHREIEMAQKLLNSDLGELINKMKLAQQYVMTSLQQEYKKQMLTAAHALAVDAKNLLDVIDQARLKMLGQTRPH

CNC(=O)c1ccccc1Nc1nc(Nc2ccc(N3CCOCC3)cc2OC)ncc1Cl [TAE226, reference compound]
dependence of kinase inhibitory activity against full-length FAK on the concentration of ATP [1]: inversely proportional to the concentration of ATP

CN=C1C=CC(=C(c2ccc(N(C)C)cc2)c2ccc(N(C)C)cc2)C=C1.Cl [methyl violet 2B]
IC50 [2]: 19.6 nM
IC50 [3]: 34.1 nM
IC50 [4]: 45.6 nM
IC50 [5]: 59400 nM
IC50 [6]: 81.5 nM
IC50 [7]: 36.9 nM
IC50 [8]: 18.1 nM
IC50 [9]: 69.7 nM
IC50 [10]: 13.4 nM
IC50 [11]: 938 nM
IC50 ([1]; 10 μM ATP, LANCE Ultra kinase assay): 2.7 µM
dependence of kinase inhibitory activity against full-length FAK on the concentration of ATP [1]: independent of the concentration of ATP
inhibitory effect on phosphorylation of FAK Tyr925, Tyr861 and Tyr577 [12]: much greater than that of Y576 and Y397
inhibition of phosphorylation of FER Tyr402 [13]: significantly inhibits
inhibition of p-AKT Ser473 [14]: dramatically inhibits
inhibition of p-AKT Thr308 [14]: dramatically inhibits
phosphorylation of GSK3β S9 [15]: significantly blocked
level of PTEN [16]: not altered
inhibitory effect against p-ERK [17]: strong inhibitory effect
inhibitory effect against p-JNK [18]: strong inhibitory effect
expression of the anti-apoptotic molecule Bcl-2 [19]: significantly suppressed
effect on p-Bad [20]: less effective
phosphorylation of C-raf [21]: did not affect
invasion of the A375P cells [22]: dose-dependent decrease
cancer cell (A375P) motility / migration [23]: suppresses

Reference: US20140148606A1, “ANTI-TUMOR EFFECTS OF ALLOSTERIC FOCAL ADHESION KINASE INHIBITOR, METHYL VIOLET DERIVATIVES” (Korea Institute of Science and Technology, priority 2012, published 2014)
